Patent US20110065749A1, “METHOD AND PHARMACEUTICAL COMPOSITION FOR TREATMENT OF MENTAL DISORDERS” (ACTIVE CO. LTD., priority 2008, published 2011)
Structures can show the parent of a compound that is named as a salt.

What was measured:
Refractory Depression = test: Case 2: refractory depression patient, HAMD; type: in vivo, human
From the text: For evaluation of the state of depression, for example, Hamilton's rating scale for depression (HAMD) is available. The HAMD was developed by Max Hamilton in 1960 for the purpose of measuring the severity of a patient diagnosed with depression (Hamilton, M., Journal of Neurology, Neurosurgery & Psychiatry, 23-56-62 (1960) and Hamilton, M., “Development of rating scale for primary depressive illness”, British Journal of Social and Clinical Psychology, 6: 278-296 (1967)). In view of its high usefulness, it is a representative scale of evaluation for depression, widely used in clinical researches and practices. The 17 item version is used for clinical trials of antidepressants in Japan, whereas the 21 item version and the 24 item version are used in Europe or other countries. When the severity is calculated using Hamilton's rating scale for depression (HAMD), each item is evaluated with three grades of 0-2, or five grades of 0-4. For example, the case is diagnosed as severe where the point is 20 or higher and, as the point decreases, the symptom is diagnosed as being improved. Case 2: Refractory Depression Patient was a person, who was unresponsive to any combination of SSRIs, SNRIs, tricyclic antidepressants, and antianxiety agents in their respective maximum doses. The score of HAMD was 23 points. […] Increasing the dose of Cephadol® to 150 mg/day improved the score of HAMD to 3 points. The improvement lasted even after other antidepressants were removed. Even 3 months later, the score of HAMD was still 3 points. When the dose of Cephadol® was reduced to 75 mg/day, the score of HAMD became 13 points after one week.

[1] = test system: manic state of bipolar I disorder; test: Case 3: manic-depressive illness patient; type: in vivo, human
Experimental: Case 3: Manic-Depressive Illness Patient was a person, who had continuously been in a manic state of bipolar I disorder for over one month. An antiepileptic drug, or 1,200 mg of Limas®, was ineffective. Antipsychotic drugs were not usable due to significant side effects. […] When they discontinued the administration of Cephadol®, the manic state appeared after 5 days.

Bulimia = test: Case 8: bulimia (2) patient; type: in vivo, human; conditions: 150 mg/day
From the text: Patient was a person, who had been suffering from bulimia. The bulimia persisted even after their marriage and childbearing.

[2] = test system: Panic Disorder and Multiple Personality Disorder; test: Case 10: panic disorder and multiple personality disorder patient; type: in vivo, human
From the text: Case 10: Panic Disorder and Multiple Personality Disorder
Patient was a single person, who had been treated at several psychiatric hospitals. […] They report that the medicine is best to calm their mind, and easier to take than any other drugs that they have ever taken.

Insomnia = test: Case 11: insomnia in an elderly person; type: in vivo, human
Experimental: Case 11: Insomnia in an Elderly Person A person had had no history of insomnia or depression before they retired from their company at mandatory retirement age. […] Being seriously distressed by insomnia, they had been prescribed hypnotics at two or three mental clinics. The hypnotics had made them easily fall down when going to the bathroom at night, and made them feel half awake in the morning, with memory impairment. The patient was started on 50 mg Cephadol® twice a day (after dinner and before sleeping).

Schizophrenia = test: Case 12: schizophrenia patient; type: in vivo, human; conditions: 150 mg/day
From the text: A person had been diagnosed with schizophrenia and had received antipsychotic drugs. In spite of the treatment with newest antipsychotic drugs, the dullness of thinking, depression, and obesity of the patient were not improved.

Withdrawal Symptoms = test: Case 13: withdrawal symptoms on reducing other drugs; type: in vivo, human
Experimental: Case 13: Withdrawal Symptoms A office worker had been on 10 mg Paxil®, 2 mg Rohypnol® and 2 mg Depas® before sleeping. Although they had tried to reduce the doses of the drugs, emergence of withdrawal syndrome had hampered the reduction of the drugs. They started to take Cephadol®, 25 mg after dinner and 50 mg before sleeping. It made them able to be free from the other drugs in two weeks.

Fibromyalgia [3] = test: Case 15: fibromyalgia (1) patient; type: in vivo, human
Experimental: They then visited the inventor's clinic. When the inventor started the treatment with 75 mg/day Cephadol®, systemic pain of the patient was improved in two days. […] As a result, they became able to perform usual household work, go outside, and further make a trip.

Fibromyalgia [4] = test: Case 17: fibromyalgia (3) patient; type: in vivo, human
From the text: […] Being unresponsive to prescribed medicines, they were instructed to do gentle stretching exercise and massage, as well as thermotherapy on affected areas. However, their arthralgia was so terrible that they could not perform stretching exercise or other directions. They had pain at all the 18 tender points of the whole body, a jaw abnormality, and a strong pain at both knee joints, which made their unable to go to hospital on foot.

Fibromyalgia [5] = test: Case 18: fibromyalgia (4) patient; type: in vivo, human
From the text: Case 18: Fibromyalgia (4)
A person (housewife) is a patient with depression, having received regular medical treatment since seven years ago. […] However, a diagnosis with autoimmune disease or inflammatory disease was negative from their blood test. Due to back pain and fingertip pain, they were unable to make household work, and it was painful for them to hold even a light object by hand. They had pain at 15 points among the 18 tender points of the whole body, and was diagnosed with fibromyalgia. […] They had to stay in bed all day long, and such a condition lasted for the long term.

vertebral artery = conditions: dog experiments; cited from earlier work
[6] = test system: evoked potential of hypothalamus by vestibular nuclei stimulation; conditions: rat experiments; cited from earlier work
[7] = 50 mg twice a day, hypnotics halved
[8] = 25 mg after dinner and 50 mg before sleeping

## OC(CCCN1CCCCC1)(c1ccccc1)c1ccccc1 [Cephadol®, 1,1-diphenyl-4-piperidine-1-ylbuthan-1-ol monohydrochloride]
Refractory Depression; 75 mg/day, HAMD 23 points before
  depressive symptom: significant improvement
Refractory Depression; 150 mg/day, 3 months later, other antidepressants removed
  score of HAMD: 3 points
Refractory Depression; 75-150 mg/day
  side effects: no side effects
Refractory Depression; dose increased to 150 mg/day, 23 points before
  score of HAMD: 3 points
Refractory Depression; dose reduced to 75 mg/day, after one week
  score of HAMD: 13 points
[1]; 150 mg/day
  effect on the disease (manic state): significant amelioration of the disease
  side effects: no side effects
[1]; after discontinuation of 150 mg/day
  time until the manic state appeared after discontinuation: 5 days
Bulimia
  duration of the effect: more than two
  overeating: stopped their overeating
Bulimia; more than two months
  side effects: without any side effects
[2]; 75 mg/day for one week, then 150 mg/day
  panic disorder: significant improvement of panic disorder
[2]; 150 mg/day, previously 5 to 10 times a month
  transformation of personality: improved
[2]; 75-150 mg/day
  antianxiety effect: strong antianxiety effect
Insomnia; 50 mg twice a day
  dose of concomitant hypnotics: reduced in dose by half
  side effects: no side effects
Insomnia; 50 mg twice a day (after dinner and before sleeping)
  sleep: became able to sleep well
Insomnia; [7]
  memory impairment on the next morning: without memory impairment
  staggering gait on awaking at night: free from staggering gait on awaking at night
Schizophrenia
  appetite and body weight: reduced their appetite and body weight
  side effects and relapse of schizophrenia: no side effects, nor relapse of schizophrenia
  thinking speed and depression: improved their subjective and objective thinking speed and depression
Withdrawal Symptoms; [8]
  side effects: no side effects
  time until free from the other drugs (Paxil, Rohypnol, Depas): two
Withdrawal Symptoms; dose reduced from 50 mg to 25 mg, and to 0 mg
  outcome after tapering Cephadol: discontinuation of all the drugs
Fibromyalgia [3]; 75 mg/day, in two days
  systemic pain: improved
Fibromyalgia [3]; 150 mg/day
  mobility of large joints (objective): the mobility of large joints increased
  pain at 18 tender points including low back pain: totally improved
Fibromyalgia [3]; 150 mg/day, increased one week later
  arthralgia: complete elimination of arthralgia
Fibromyalgia [4]; 75 mg/day
  pain at both knee joints: improved the pain at both knee joints
  systemic pain: eliminated the systemic pain
Fibromyalgia [4]; 125 mg/day
  mobility of large joints (objective): the mobility of large joints increased
Fibromyalgia [4]; dosage increased to 125 mg/day
  pain at both knee joints: the pain at both knee joints also disappeared
Fibromyalgia [4]; dosage reduced to 75 mg/day, on the next day
  pain at both knee joints: recurrence of the pain at both knee joints
Fibromyalgia [4]; dose re-increased to 125 mg/day, on the next day
  pain at both knee joints: eliminated the pain at both knee joints
Fibromyalgia [5]; 75 mg/day
  malaise: significant improvement in malaise
Fibromyalgia [5]; 125 mg/day
  mobility of large joints (objective): the mobility of large joints increased
Fibromyalgia [5]; dose increased to 125 mg/day
  back pain and fingertip pain: improved the back pain and fingertip pain
Vertebral artery
  blood flow of the vertebral artery: increase the blood flow thereof
  spasm of the vertebral artery: remit the spasm of the vertebral artery
[6]
  evoked potential of hypothalamus by vestibular nuclei stimulation: inhibited the evoked potential of hypothalamus by vestibular nuclei stimulation
